From ChEMBL document CHEMBL6078723, “Novel steroidal β-carboline derivatives as promising antibacterial candidates against methicillin-resistant Staphylococcus aureus” (Eur J Med Chem, 2025)
Active and inactive are the calls of the source. No cut-off for these calls is given here.

What was measured:
Staphylococcus aureus [1] = assay: Bactericidal activity against Staphylococcus aureus CGMCC1.8721 by CLSI based method; format: functional
Staphylococcus aureus [2] = assay: Bactericidal activity against methicillin-resistant Staphylococcus aureus ATCC 33591 by CLSI based method; format: functional
Staphylococcus aureus [3] = assay: Bactericidal activity against methicillin-resistant Staphylococcus aureus ATCC 43300 by CLSI based method; format: functional
Staphylococcus aureus [4] = assay: Antibacterial activity against methicillin-resistant Staphylococcus aureus CGMCC1.12409; format: functional
Staphylococcus aureus [5] = assay: Bactericidal activity against methicillin-resistant Staphylococcus aureus CGMCC1.12409 by CLSI based method; format: functional
Staphylococcus aureus [6] = assay: Antibacterial activity against methicillin-resistant Staphylococcus aureus ATCC 43300; format: functional
Staphylococcus aureus [7] = assay: Antibacterial activity against Staphylococcus aureus CGMCC1.8721; format: functional
Staphylococcus aureus [8] = assay: Antibacterial activity against methicillin-resistant Staphylococcus aureus ATCC 33591; format: functional
Staphylococcus aureus [9] = assay: Antibacterial activity against Staphylococcus aureus CGMCC1.8721 in presence of phosphatidylglycerol; format: functional, organism-based
Staphylococcus aureus [10] = assay: Antibacterial activity against methicillin-resistant Staphylococcus aureus CGMCC1.12409 infected in mouse model assessed as reduction in abscesses size at 5 mg/kg measured for 5 days; format: functional, organism-based; conditions: time 5.0 day
Staphylococcus aureus [11] = assay: Antibacterial activity against methicillin-resistant Staphylococcus aureus CGMCC1.12409 infected in mouse model assessed as reduction in neutrophils in skin tissues at 5 mg/kg measured for 5 days by H and E staining based analysis; format: functional, organism-based; conditions: time 5.0 day
Staphylococcus aureus [12] = assay: Antibacterial activity against methicillin-resistant Staphylococcus aureus CGMCC1.12409 infected in mouse model assessed as reduction in bacterial clones at 5 mg/kg measured for 5 days; format: functional, organism-based; conditions: time 5.0 day
Staphylococcus aureus [13] = assay: Antibacterial activity against methicillin-resistant Staphylococcus aureus CGMCC1.12409 infected in mouse model assessed as reduction in bacterial load at infection site at 5 mg/kg measured for 5 days relative to control; format: functional; set-up: scale not given: the % may be the effect or the level left; conditions: time 5 day
Staphylococcus aureus [14] = assay: Antibacterial activity against methicillin-resistant Staphylococcus aureus CGMCC1.12409 infected in mouse model assessed as reduction in inflammation in skin tissues at 5 mg/kg measured for 5 days by H and E staining based analysis; format: functional, organism-based; conditions: time 5.0 day
Staphylococcus aureus [15] = assay: Induction of resistance development in Staphylococcus aureus CGMCC1.8721 assessed as fold increase in MIC at sub-lethal concentration following serial passages for 30 days relative to control; format: functional; conditions: time 30 day

SMILES	MBC (Staphylococcus aureus [1])	MBC (Staphylococcus aureus [2])	MBC (Staphylococcus aureus [3])	MIC (Staphylococcus aureus [4])	MBC (Staphylococcus aureus [5])	MIC (Staphylococcus aureus [6])	MIC (Staphylococcus aureus [7])	MIC (Staphylococcus aureus [8])	Activity (Staphylococcus aureus [9])	Activity (Staphylococcus aureus [10])	Activity (Staphylococcus aureus [11])	Activity (Staphylococcus aureus [12])	Activity (Staphylococcus aureus [13])	Activity (Staphylococcus aureus [14])	fold change (FC) (Staphylococcus aureus [15])
COc1ccc2[nH]c3c(CC[C@H](C)[C@H]4CC[C@H]5[C@@H]6[C@H](O)C[C@@H]7C[C@H](O)CC[C@]7(C)[C@H]6C[C@H](O)[C@]45C)[n+](Cc4ccc(C)cc4)ccc3c2c1.[Br-]	1 µg/mL	8 µg/mL	2 µg/mL	4 µg/mL	8 µg/mL	1 µg/mL	0.5 µg/mL	4 µg/mL	–	–	–	–	–	–	–
COc1ccc2[nH]c3c(CC[C@H](C)[C@H]4CC[C@H]5[C@@H]6[C@H](O)C[C@@H]7C[C@H](O)CC[C@]7(C)[C@H]6C[C@H](O)[C@]45C)[n+](Cc4ccccc4C)ccc3c2c1.[Br-]	1 µg/mL	8 µg/mL	4 µg/mL	4 µg/mL	8 µg/mL	1 µg/mL	0.5 µg/mL	4 µg/mL	–	–	–	–	–	–	–
CNC(C)[C@@H]1CC[C@@H](N)[C@@H](O[C@H]2[C@H](O)[C@@H](O[C@H]3OC[C@](C)(O)[C@H](NC)[C@H]3O)[C@H](N)C[C@@H]2N)O1.CN[C@@H]1[C@@H](O)[C@@H](O[C@@H]2[C@@H](O)[C@H](O[C@H]3O[C@H](C(C)N)CC[C@H]3N)[C@@H](N)C[C@H]2N)OC[C@]1(C)O.CN[C@@H]1[C@@H](O)[C@@H](O[C@@H]2[C@@H](O)[C@H](O[C@H]3O[C@H](CN)CC[C@H]3N)[C@@H](N)C[C@H]2N)OC[C@]1(C)O (some centres undefined)	–	–	–	–	–	–	–	–	Active	–	–	–	–	–	–
CCC[n+]1ccc2c([nH]c3ccc(OC)cc32)c1CC[C@H](C)[C@H]1CC[C@H]2[C@@H]3[C@H](O)C[C@@H]4C[C@H](O)CC[C@]4(C)[C@H]3CC[C@]12C.[Br-]	2 µg/mL	4 µg/mL	2 µg/mL	2 µg/mL	4 µg/mL	2 µg/mL	1 µg/mL	2 µg/mL	–	–	–	–	–	–	–
CC[n+]1ccc2c([nH]c3ccc(OC)cc32)c1CC[C@H](C)[C@H]1CC[C@H]2[C@@H]3[C@H](O)C[C@@H]4C[C@H](O)CC[C@]4(C)[C@H]3CC[C@]12C.[Br-]	2 µg/mL	4 µg/mL	2 µg/mL	2 µg/mL	4 µg/mL	2 µg/mL	1 µg/mL	2 µg/mL	–	–	–	–	–	–	–
CCCC[n+]1ccc2c([nH]c3ccc(OC)cc32)c1CC[C@H](C)[C@H]1CC[C@H]2[C@@H]3[C@H](O)C[C@@H]4C[C@H](O)CC[C@]4(C)[C@H]3CC[C@]12C.[Br-]	2 µg/mL	16 µg/mL	8 µg/mL	4 µg/mL	8 µg/mL	4 µg/mL	1 µg/mL	4 µg/mL	–	–	–	–	–	–	–
CN[C@H](CC(C)C)C(=O)N[C@H]1C(=O)N[C@@H](CC(N)=O)C(=O)N[C@H]2C(=O)N[C@H]3C(=O)N[C@H](C(=O)N[C@H](C(=O)O)c4cc(O)cc(O)c4-c4cc3ccc4O)[C@H](O)c3ccc(c(Cl)c3)Oc3cc2cc(c3O[C@@H]2O[C@H](CO)[C@@H](O)[C@H](O)[C@H]2O[C@H]2C[C@](C)(N)[C@H](O)[C@H](C)O2)Oc2ccc(cc2Cl)[C@H]1O [VANCOMYCIN]	–	–	–	–	–	–	–	–	Active	Active	Active	Active	92.98%	Active	–
COc1ccc2[nH]c3c(CC[C@H](C)[C@H]4CC[C@H]5[C@@H]6[C@H](O)C[C@@H]7C[C@H](O)CC[C@]7(C)[C@H]6C[C@H](O)[C@]45C)[n+](Cc4ccc(OC(F)(F)F)cc4)ccc3c2c1.[Br-]	1 µg/mL	4 µg/mL	2 µg/mL	1 µg/mL	2 µg/mL	1 µg/mL	1 µg/mL	2 µg/mL	–	–	–	–	–	–	–
CCn1cc(C(=O)O)c(=O)c2cc(F)c(N3CCNCC3)cc21 [NORFLOXACIN]	–	–	–	–	–	–	–	–	Active	–	–	–	–	–	64
COc1ccc2[nH]c3c(CC[C@H](C)[C@H]4CC[C@H]5[C@@H]6[C@H](O)C[C@@H]7C[C@H](O)CC[C@]7(C)[C@H]6C[C@H](O)[C@]45C)[n+](Cc4ccc(F)cc4)ccc3c2c1.[Br-]	1 µg/mL	2 µg/mL	2 µg/mL	1 µg/mL	2 µg/mL	1 µg/mL	0.5 µg/mL	2 µg/mL	–	–	–	–	–	–	–
CCCCCCCCCC(=O)N[C@@H](Cc1c[nH]c2ccccc12)C(=O)N[C@@H](CC(N)=O)C(=O)N[C@@H](CC(=O)O)C(=O)N[C@@H]1C(=O)NCC(=O)N[C@@H](CCCN)C(=O)N[C@@H](CC(=O)O)C(=O)N[C@H](C)C(=O)N[C@@H](CC(=O)O)C(=O)NCC(=O)N[C@H](CO)C(=O)N[C@@H]([C@@H](C)CC(=O)O)C(=O)N[C@@H](CC(=O)c2ccccc2N)C(=O)O[C@@H]1C	–	–	–	–	–	–	–	–	inactive	–	–	–	–	–	–
COc1ccc2[nH]c3c(CC[C@H](C)[C@H]4CC[C@H]5[C@@H]6[C@H](O)C[C@@H]7C[C@H](O)CC[C@]7(C)[C@H]6C[C@H](O)[C@]45C)[n+](Cc4cccc(F)c4)ccc3c2c1.[Br-]	2 µg/mL	2 µg/mL	2 µg/mL	2 µg/mL	4 µg/mL	1 µg/mL	1 µg/mL	2 µg/mL	–	–	–	–	–	–	–
COc1ccc2[nH]c3c(CC[C@H](C)[C@H]4CC[C@H]5[C@@H]6[C@H](O)C[C@@H]7C[C@H](O)CC[C@]7(C)[C@H]6C[C@H](O)[C@]45C)[n+](Cc4ccccc4F)ccc3c2c1.[Br-]	2 µg/mL	4 µg/mL	2 µg/mL	2 µg/mL	4 µg/mL	1 µg/mL	1 µg/mL	4 µg/mL	–	–	–	–	–	–	–
CC[n+]1ccc2c([nH]c3ccc(OC)cc32)c1CC[C@H](C)[C@H]1CC[C@H]2[C@@H]3[C@H](O)C[C@@H]4C[C@H](O)CC[C@]4(C)[C@H]3C[C@H](O)[C@]12C.[Br-]	–	–	–	16 µg/mL	–	16 µg/mL	16 µg/mL	16 µg/mL	–	–	–	–	–	–	–
COc1ccc2[nH]c3c(CC[C@H](C)[C@H]4CC[C@H]5[C@@H]6CC[C@@H]7C[C@H](O)CC[C@]7(C)[C@H]6CC[C@]45C)[n+](Cc4ccc(C(F)(F)F)cc4)ccc3c2c1.[Br-]	–	–	–	16 µg/mL	–	16 µg/mL	16 µg/mL	32 µg/mL	–	–	–	–	–	–	–
COc1ccc2[nH]c3c(CC[C@H](C)[C@H]4CC[C@H]5[C@@H]6CC[C@@H]7C[C@H](O)CC[C@]7(C)[C@H]6CC[C@]45C)[n+](Cc4ccc(OC(F)(F)F)cc4)ccc3c2c1.[Br-]	–	–	–	16 µg/mL	–	16 µg/mL	16 µg/mL	32 µg/mL	–	–	–	–	–	–	–
COc1cccc(C[n+]2ccc3c([nH]c4ccc(OC)cc43)c2CC[C@H](C)[C@H]2CC[C@H]3[C@@H]4[C@H](O)C[C@@H]5C[C@H](O)CC[C@]5(C)[C@H]4CC[C@]23C)c1.[Br-]	–	–	–	8 µg/mL	–	8 µg/mL	4 µg/mL	8 µg/mL	–	–	–	–	–	–	–
COc1ccc2[nH]c3c(CC[C@H](C)[C@H]4CC[C@H]5[C@@H]6[C@H](O)C[C@@H]7C[C@H](O)CC[C@]7(C)[C@H]6C[C@H](O)[C@]45C)[n+](Cc4ccc(Br)cc4)ccc3c2c1.[Br-]	2 µg/mL	4 µg/mL	2 µg/mL	2 µg/mL	4 µg/mL	2 µg/mL	1 µg/mL	2 µg/mL	–	–	–	–	–	–	–
COc1cccc(C[n+]2ccc3c([nH]c4ccc(OC)cc43)c2CC[C@H](C)[C@H]2CC[C@H]3[C@@H]4[C@H](O)C[C@@H]5C[C@H](O)CC[C@]5(C)[C@H]4C[C@H](O)[C@]23C)c1.[Br-]	2 µg/mL	8 µg/mL	4 µg/mL	4 µg/mL	8 µg/mL	1 µg/mL	1 µg/mL	4 µg/mL	–	–	–	–	–	–	–
COc1ccc2[nH]c3c(CC[C@H](C)[C@H]4CC[C@H]5[C@@H]6[C@H](O)C[C@@H]7C[C@H](O)CC[C@]7(C)[C@H]6CC[C@]45C)[n+](Cc4ccc(C)cc4)ccc3c2c1.[Br-]	–	–	–	16 µg/mL	–	16 µg/mL	16 µg/mL	16 µg/mL	–	–	–	–	–	–	–
CO[C@H]1/C=C/O[C@@]2(C)Oc3c(C)c(O)c4c(O)c(c(/C=N/N5CCN(C)CC5)c(O)c4c3C2=O)NC(=O)/C(C)=C\C=C\[C@H](C)[C@H](O)[C@@H](C)[C@@H](O)[C@@H](C)[C@H](OC(C)=O)[C@@H]1C	–	–	–	–	–	–	–	–	Active	–	–	–	–	–	–
